{
  "source": "patent US20110312961A1",
  "about": "“2,5-Disubstituted Morpholine Orexin REceptor Antagonists” (priority 2008, published 2011)",
  "key": {"[1]": {"target": "T1, human recombinant α4β2 nicotinic receptors (Homo sapiens, UniProt P17787+P43681)", "T1 construct": "expressed in transfected cells; host or cells: SH-EP1 clonal cells", "T1 sequence (P43681 29-627 limits assumed)": "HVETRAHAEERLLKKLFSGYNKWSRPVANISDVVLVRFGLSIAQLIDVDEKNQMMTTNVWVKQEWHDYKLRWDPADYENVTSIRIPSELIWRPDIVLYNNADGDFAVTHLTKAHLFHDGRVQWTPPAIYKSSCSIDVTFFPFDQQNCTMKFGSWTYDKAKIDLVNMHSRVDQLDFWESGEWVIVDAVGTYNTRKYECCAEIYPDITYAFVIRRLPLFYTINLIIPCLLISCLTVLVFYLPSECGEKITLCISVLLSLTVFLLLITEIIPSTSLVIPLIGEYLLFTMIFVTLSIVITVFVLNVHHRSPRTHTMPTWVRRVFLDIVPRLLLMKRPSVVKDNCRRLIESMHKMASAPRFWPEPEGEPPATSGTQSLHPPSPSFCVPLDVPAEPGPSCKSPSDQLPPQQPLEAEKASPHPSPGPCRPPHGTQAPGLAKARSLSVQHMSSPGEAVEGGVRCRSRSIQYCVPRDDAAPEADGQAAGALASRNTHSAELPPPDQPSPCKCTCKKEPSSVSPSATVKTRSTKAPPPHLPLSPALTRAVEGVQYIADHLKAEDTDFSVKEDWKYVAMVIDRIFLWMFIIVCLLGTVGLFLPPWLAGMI", "T1 sequence (P17787 26-502)": "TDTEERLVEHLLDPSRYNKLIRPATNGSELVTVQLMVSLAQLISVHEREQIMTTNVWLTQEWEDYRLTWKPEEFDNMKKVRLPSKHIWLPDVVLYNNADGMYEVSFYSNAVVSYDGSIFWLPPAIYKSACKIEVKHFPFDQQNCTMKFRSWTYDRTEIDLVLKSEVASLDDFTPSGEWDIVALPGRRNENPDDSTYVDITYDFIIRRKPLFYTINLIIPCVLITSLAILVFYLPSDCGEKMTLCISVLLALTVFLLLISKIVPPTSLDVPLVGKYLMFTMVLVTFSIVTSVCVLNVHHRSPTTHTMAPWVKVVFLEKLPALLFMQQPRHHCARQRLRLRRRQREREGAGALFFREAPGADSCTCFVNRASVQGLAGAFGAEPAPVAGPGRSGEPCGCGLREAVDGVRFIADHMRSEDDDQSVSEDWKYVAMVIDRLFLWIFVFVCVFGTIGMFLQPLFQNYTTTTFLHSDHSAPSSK", "assay": "[3H]-nicotine radioligand binding, SH-EP1/human α4β2 membranes", "settings": "read-out: inhibition of [3H]-nicotine binding to human recombinant α4β2 nicotinic receptors", "procedure": "Preparation of membranes from SH-EP1/human α4β2 clonal cells: Cell pellets from 40 150 mm culture dishes were pooled, and homogenized by Polytron (Kinematica GmbH, Switzerland) in 20 milliliters of ice-cold preparative buffer. The homogenate was centrifuged at 48,000 g for 20 minutes at 4° C. The resulting pellet was re-suspended in 20 mL of ice-cold preparative buffer and stored at −20° C.\nOn the day of the assay, the frozen membranes were thawed and spun at 48,000×g for 20 min. The supernatant was decanted and discarded. The pellet was resuspended in Dulbecco's phosphate buffered saline (PBS, Life Technologies) pH 7.4 and homogenized with the Polytron for 6 seconds. Protein concentrations were determined using a Pierce BCA Protein Assay Kit, with bovine serum albumin as the standard (Pierce Chemical Company, Rockford, Ill.).\nMembrane preparations (approximately 50 μg for human and 200-300 μg protein for rat α4β2) were incubated in PBS (50 μL and 100 μL respectively) in the presence of competitor compound (0.01 nM to 100 μM) and 5 nM [^3H]nicotine for 2-3 hours on ice. […] Filters were then counted to determine radioactivity bound to the membranes by liquid scintillation counting (2200CA Tri-Carb LSC, Packard Instruments, 50% efficiency or Wallac Trilux 1450 MicroBeta, 40% efficiency, Perkin Elmer).\nData were expressed as disintegrations per minute (DPMs). […]"}, "[2]": {"target": "T2, human native muscle-type nicotinic receptors (likely α1β1γδ) (Homo sapiens, UniProt P02708+P07510+Q07001)", "T2 construct": "human native muscle-type nicotinic receptors (likely α1β1γδ); endogenous in cells; host or cells: TE-671", "T2 sequence (P07510 23-517)": "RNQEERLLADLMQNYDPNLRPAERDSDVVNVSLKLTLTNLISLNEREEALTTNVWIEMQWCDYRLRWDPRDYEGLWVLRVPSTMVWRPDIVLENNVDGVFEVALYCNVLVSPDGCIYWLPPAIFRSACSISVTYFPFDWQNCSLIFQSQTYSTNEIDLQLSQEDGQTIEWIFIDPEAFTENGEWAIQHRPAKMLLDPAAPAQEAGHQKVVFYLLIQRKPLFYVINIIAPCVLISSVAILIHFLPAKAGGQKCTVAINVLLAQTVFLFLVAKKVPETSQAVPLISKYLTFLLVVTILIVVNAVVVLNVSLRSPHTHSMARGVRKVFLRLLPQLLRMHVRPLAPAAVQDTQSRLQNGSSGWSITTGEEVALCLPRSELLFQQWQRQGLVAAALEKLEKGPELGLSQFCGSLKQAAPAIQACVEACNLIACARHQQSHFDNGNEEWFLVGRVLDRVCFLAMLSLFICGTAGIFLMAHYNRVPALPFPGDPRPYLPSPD", "T2 sequence (P11230 24-501, further chain)": "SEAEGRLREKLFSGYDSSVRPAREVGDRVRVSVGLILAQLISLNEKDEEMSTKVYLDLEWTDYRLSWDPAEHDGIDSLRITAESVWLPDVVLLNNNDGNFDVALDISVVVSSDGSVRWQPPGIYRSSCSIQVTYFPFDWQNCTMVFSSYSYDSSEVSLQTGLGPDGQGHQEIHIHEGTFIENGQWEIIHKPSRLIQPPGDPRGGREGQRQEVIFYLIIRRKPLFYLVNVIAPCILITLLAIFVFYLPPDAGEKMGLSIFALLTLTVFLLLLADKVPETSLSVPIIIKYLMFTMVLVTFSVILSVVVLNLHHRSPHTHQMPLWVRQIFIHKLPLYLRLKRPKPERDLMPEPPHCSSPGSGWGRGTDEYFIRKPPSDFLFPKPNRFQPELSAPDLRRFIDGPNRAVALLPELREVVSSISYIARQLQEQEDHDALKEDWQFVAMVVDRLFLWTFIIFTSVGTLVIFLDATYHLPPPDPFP", "T2 sequence (P02708 21-457)": "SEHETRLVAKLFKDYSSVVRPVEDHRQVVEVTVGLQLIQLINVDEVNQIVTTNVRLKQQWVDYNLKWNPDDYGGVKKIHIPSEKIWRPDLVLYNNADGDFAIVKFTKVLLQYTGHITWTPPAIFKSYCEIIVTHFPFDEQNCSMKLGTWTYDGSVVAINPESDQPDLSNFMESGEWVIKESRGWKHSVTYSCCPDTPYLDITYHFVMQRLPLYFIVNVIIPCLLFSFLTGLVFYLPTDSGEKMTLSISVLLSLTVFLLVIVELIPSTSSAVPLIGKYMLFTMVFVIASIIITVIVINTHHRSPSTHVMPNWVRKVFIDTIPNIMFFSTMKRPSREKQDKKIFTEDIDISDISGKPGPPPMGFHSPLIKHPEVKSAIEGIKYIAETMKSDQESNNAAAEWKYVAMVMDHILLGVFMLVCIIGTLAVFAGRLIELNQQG", "T2 sequence (Q07001 22-517)": "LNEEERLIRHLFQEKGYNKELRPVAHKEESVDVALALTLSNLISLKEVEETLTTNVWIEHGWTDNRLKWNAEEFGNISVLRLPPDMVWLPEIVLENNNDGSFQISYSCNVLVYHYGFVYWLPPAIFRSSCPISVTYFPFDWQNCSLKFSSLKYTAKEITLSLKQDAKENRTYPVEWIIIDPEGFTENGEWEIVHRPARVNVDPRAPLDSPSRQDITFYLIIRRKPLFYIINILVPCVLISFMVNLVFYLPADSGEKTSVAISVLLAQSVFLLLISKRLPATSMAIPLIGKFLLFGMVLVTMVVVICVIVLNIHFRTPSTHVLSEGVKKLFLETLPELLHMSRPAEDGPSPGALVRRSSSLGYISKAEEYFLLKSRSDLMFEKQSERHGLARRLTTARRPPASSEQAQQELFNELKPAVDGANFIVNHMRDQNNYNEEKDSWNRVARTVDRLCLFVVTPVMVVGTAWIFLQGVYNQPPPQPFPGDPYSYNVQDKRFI", "assay": "[3H]epibatidine binding, TE-671 membranes"}, "[3]": {"target": "T3, human recombinant α4β4 nicotinic receptors (Homo sapiens, UniProt P30926+P43681)", "T3 construct": "expressed in transfected cells; host or cells: SH-EP1", "T3 sequence (P43681 29-627 limits assumed)": "as the sequence (P43681 29-627 limits assumed) above", "T3 sequence (P30926 22-498)": "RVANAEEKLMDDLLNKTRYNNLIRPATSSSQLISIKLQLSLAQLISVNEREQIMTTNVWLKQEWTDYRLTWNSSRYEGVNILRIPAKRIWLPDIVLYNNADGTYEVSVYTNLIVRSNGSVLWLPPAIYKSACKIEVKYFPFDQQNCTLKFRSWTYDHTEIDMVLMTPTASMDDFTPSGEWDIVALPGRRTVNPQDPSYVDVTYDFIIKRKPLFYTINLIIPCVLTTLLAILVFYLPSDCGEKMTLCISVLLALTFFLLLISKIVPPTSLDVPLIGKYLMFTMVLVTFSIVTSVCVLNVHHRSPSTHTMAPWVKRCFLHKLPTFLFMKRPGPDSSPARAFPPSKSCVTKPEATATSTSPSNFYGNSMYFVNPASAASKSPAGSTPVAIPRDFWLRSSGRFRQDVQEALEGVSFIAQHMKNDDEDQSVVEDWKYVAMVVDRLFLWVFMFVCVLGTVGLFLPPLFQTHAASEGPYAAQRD", "assay": "[3H]epibatidine binding, SH-EP1 membranes"}, "Sprague-Dawley rats": {"tested_on": "Sprague-Dawley rats", "assay": "Complete Freund's adjuvant (CFA)-induced thermal hyperalgesia", "assay_type": "in vivo, rat", "settings": "0.1, 1 or 10 mg/kg s.c., 1 hour post-dose, vs vehicle", "procedure": "Injection of complete Freund's adjuvant (CFA) in rats is commonly used to evaluate compounds with potential for use as drugs in treatment of mono-arthritis (osteo-arthritis) and other inflammatory conditions. Signs of hyperalgesia develop within 24 h (Schaible and Grubb, 1993).\n(2S,3R)—N-2-((3-pyridinyl)methyl)-1-azabicyclo[2.2.2]oct-3-yl)-3,5-difluorobenzamide was evaluated for possible analgesia effect in the CFA-induced thermal hyperalgesia test in rats using methods similar to those described by Walker and colleagues (2003). Briefly, adult male Sprague-Dawley rats (BioLasco, Taiwan) weighing 180±20 g on receipt were randomly assigned to treatment groups of n=8 per group. Animals each received a sub plantar injection (0.1 mL) of CFA (DIFCO, 264010; 0.1% solution) to the right hind paw at 24 h prior to experimental testing. Thermal hyperalgesia was tested using a Paw/Tail stimulator analgesia meter (IITC Model-336G, IITC, USA) with a thermally regulated glass floor set at 30° C. […] The time required for the animal to withdraw the paw from the thermal stimulus was automatically recorded. […]\nTwenty-four hours after CFA injection, subjects were pre-selected (for clear presence of thermal hyperalgesia) for experimentation only if the latency to withdrawal was less than 75% of the baseline. […] The post-treatment level of thermal hyperalgesia was then measured at 60 minutes post-treatment. […]"}, "db/db mouse": {"tested_on": "db/db mouse", "assay": "Murine model of type 2 diabetes mellitus (db/db)", "assay_type": "in vivo", "from_the_text": "The db/db mouse, a well established model of type 2 diabetes mellitus, is a leptin-deficient mutant that expresses an obese phenotype and also commonly expresses metabolic symptoms including hyperglycemia, hyperlipidemia and hyperinsulinemia (Halaas et al., 1995 and Lee et al., 1996). This experimental animal model of diabetes was employed in a study designed to determine the effects of (2S,3R)—N-2-((3-pyridinyl)methyl)-1-azabicyclo[2.2.2]oct-3-yl)-3,5-difluorobenzamide on body mass and several additional metabolic parameters.\nIn this study, (2S,3R)—N-2-((3-pyridinyl)methyl)-1-azabicyclo[2.2.2]oct-3-yl)-3,5-difluorobenzamide was repeatedly administered orally (via gavage) at 1.0 mg/kg once daily starting from the age of approximately 3 weeks and continuing throughout the 7-week study. Nondiabetic heterozygote littermate mice (db/+; designated “Db”) were used as controls. Body weight and food intake were determined twice weekly. The α7 antagonist methyllycaconitine (MLA) was also given concurrently via gavage at 3 mg/kg daily to selected cohorts of db/db (designated “db”) or db/+mice. At the end of the 7-week dosing regimen, total growth rates (overall body weight gain) and average daily food intake were calculated. In addition, glucose levels were assessed in mice fasted overnight. Furthermore, blood sample analytes from mice fasted overnight were collected for measurements of tumor necrosis factor-a (TNF-α), triglycerides and glycosylated hemoglobin (HbA1c). All data are expressed as mean±SEM. For each parameter investigated, differences among all groups were compared by one-way ANOVA with post-hoc Neuman-Keuls multiple comparison test."}, "[4]": {"assay": "Aqueous solubility of salts (salt screen)", "assay_type": "physicochemical", "settings": "free base form"}},
  "note": "pKi: −log10 of the molar value.",
  "data": [
    {"smiles": "O=C(N[C@@H]1C2CCN(CC2)[C@H]1Cc1cccnc1)c1cc(F)cc(F)c1", "note": "[Compound A]", "values": [
      {"measurement": "pKi", "setting": "[1]", "value": 5.83},
      {"measurement": "pKi", "setting": "[2]", "value": 3.87},
      {"measurement": "pKi", "setting": "[3]", "value": 4.72},
      {"measurement": "analgesic effect on CFA-induced thermal hyperalgesia", "setting": "Sprague-Dawley rats", "value": "not associated with any significant analgesic effect"},
      {"measurement": "food consumption", "setting": "db/db mouse; lean (db/+) mice, 1.0 mg/kg oral daily, FIG. 16", "value": "unaffected"},
      {"measurement": "total body weight gain", "setting": "db/db mouse; obese db/db mice, 1.0 mg/kg oral daily, 7 weeks, FIG. 15", "value": "significantly lower"},
      {"measurement": "average food consumption", "setting": "db/db mouse; obese db/db mice, 1.0 mg/kg oral daily, 7 weeks, vs obese controls, FIG. 16", "value": "significantly lower"},
      {"measurement": "all parameters measured", "setting": "db/db mouse; obese db/db mice, 1.0 mg/kg oral once daily, 7 weeks, vs vehicle-treated obese db/db", "value": "significant decrease in all parameters measured"},
      {"measurement": "fasting plasma glucose levels", "setting": "db/db mouse; obese mice, 1.0 mg/kg oral daily, 7 weeks, FIG. 17", "value": "significantly inhibited"},
      {"measurement": "glycosylated HbA1c levels", "setting": "db/db mouse; obese mice, 1.0 mg/kg oral daily, 7 weeks, FIG. 18", "value": "significantly inhibited"},
      {"measurement": "pro-inflammatory cytokine TNF alpha", "setting": "db/db mouse; obese mice, 1.0 mg/kg oral daily, 7 weeks, FIG. 19", "value": "significantly reduced"},
      {"measurement": "triglyceride levels", "setting": "db/db mouse; obese mice, 1.0 mg/kg oral daily, 7 weeks, vs vehicle-treated controls, FIG. 20", "value": "significantly lower"},
      {"measurement": "water solubility", "setting": "[4]", "value": "limited water solubility"}
    ]}
  ]
}
